Assays:
[1] = in vivo; conditions: Sprague-Dawley, rat, po, 5 mg/kg
[2] = in vitro; conditions: human, MT2 cells
Description: Cytotoxicity against human MT2 cells assessed as reduction in cell viability

[3] = in vitro; conditions: rat, liver microsomes
Description: Half life in rat liver microsomes at 0.5 uM after 1 hr in presence of NADPH by LC-MS/MS analysis

[4] = in vitro; conditions: human, liver microsomes
Description: Half life in human liver microsomes at 0.5 uM after 1 hr in presence of NADPH by LC-MS/MS analysis

[5] = tested on: Human immunodeficiency virus 1; assay: microbe, parasite or virus in culture; conditions: Human immunodeficiency virus 1, MT2
Description: Antiviral activity against wild type HIV1 infected in human MT2 cells after 4 to 5 days by dual luciferase reporter gene assay

[6] = tested on: Human immunodeficiency virus 1; assay: microbe, parasite or virus in culture; conditions: Human immunodeficiency virus 1, MT2; remark: listed apart in the source
[7] = tested on: Human immunodeficiency virus 1; assay: microbe, parasite or virus in culture; conditions: Human immunodeficiency virus 1, MT2; remark: listed apart in the source
Description: Antiviral activity against HIV1 expressing gag delta V370 mutant infected in human MT2 cells after 4 to 5 days by dual luciferase reporter gene assay

[8] = tested on: Human immunodeficiency virus 1; assay: microbe, parasite or virus in culture; conditions: Human immunodeficiency virus 1, MT2; remark: listed apart in the source
Description: Antiviral activity against wild type HIV1 infected in human MT2 cells after 4 to 5 days in presence of 10% FBS and 40% human serum albumin by dual luciferase reporter gene assay

[9] = in vivo; conditions: Sprague-Dawley, rat, po, 5 mg/kg; remark: listed apart in the source

C=C(C)[C@@H]1CC[C@]2(C(=O)NCCCN3CCS(=O)(=O)CC3)CC[C@]3(C)[C@H](CC[C@@H]4[C@@]5(C)CC=C(c6ccc(C(=O)O)cc6)C(C)(C)[C@@H]5CC[C@]43C)[C@@H]12
AUC(0-t) at 6 h [1]: 1.28 µM·h
CC50 [2]: 10.6 µM
half-life at 1 h, 0.5 µM [3]: > 120 min
half-life at 1 h, 0.5 µM [4]: > 120 min
EC50 [5]: 2.1 nM
EC50 [6]: 1.4 nM
EC50 [7]: 42.8 nM

C=C(C)[C@@H]1CC[C@]2(NCCN3CC4(C3)CN(S(C)(=O)=O)C4)CC[C@]3(C)[C@H](CC[C@@H]4[C@@]5(C)CC=C(c6ccc(C(=O)O)cc6)C(C)(C)[C@@H]5CC[C@]43C)[C@@H]12
CC50 [2]: 12 µM
half-life at 1 h, 0.5 µM [3]: > 120 min
half-life at 1 h, 0.5 µM [4]: > 120 min
EC50 [5]: 1.6 nM
EC50 [8]: 7.4 nM
EC50 [7]: 13.3 nM

C=C(C)[C@@H]1CC[C@]2(NCCNC3CCS(=O)(=O)C3)CC[C@]3(C)[C@H](CC[C@@H]4[C@@]5(C)CC=C(c6ccc(C(=O)O)cc6)C(C)(C)[C@@H]5CC[C@]43C)[C@@H]12 (some centres not stated)
CC50 [2]: 11.1 µM
half-life at 1 h, 0.5 µM [3]: > 120 min
half-life at 1 h, 0.5 µM [4]: > 120 min
EC50 [5]: 2.2 nM
EC50 [8]: 15.9 nM
EC50 [6]: 3.7 nM
EC50 [7]: 11.6 nM

C=C(C)[C@@H]1CC[C@]2(C(=O)NCCC(=O)O)CC[C@]3(C)[C@H](CC[C@@H]4[C@@]5(C)CC=C(c6ccc(C(=O)O)cc6)C(C)(C)[C@@H]5CC[C@]43C)[C@@H]12
AUC(0-t) at 24 h [9]: 79.3 µM·h
half-life at 1 h, 0.5 µM [3]: > 120 min
half-life at 1 h, 0.5 µM [4]: > 120 min

C=C(C)[C@@H]1CC[C@]2(NC(=O)C(C)N3CCS(=O)(=O)CC3)CC[C@]3(C)[C@H](CC[C@@H]4[C@@]5(C)CC=C(c6ccc(C(=O)O)cc6)C(C)(C)[C@@H]5CC[C@]43C)[C@@H]12 (some centres not stated)
CC50 [2]: > 10 µM
half-life at 1 h, 0.5 µM [3]: > 120 min
half-life at 1 h, 0.5 µM [4]: > 120 min
EC50 [5]: 1.8 nM
EC50 [6]: 5 nM
EC50 [7]: 123 nM

C=C(C)[C@@H]1CC[C@]2(NC(=O)NCCN3CCS(=O)(=O)CC3)CC[C@]3(C)[C@H](CC[C@@H]4[C@@]5(C)CC=C(c6ccc(C(=O)O)cc6)C(C)(C)[C@@H]5CC[C@]43C)[C@@H]12
CC50 [2]: 17.6 µM
half-life at 1 h, 0.5 µM [3]: > 120 min
half-life at 1 h, 0.5 µM [4]: > 120 min
EC50 [5]: 5.9 nM
EC50 [6]: 4.9 nM
EC50 [7]: 63.5 nM

C=C(C)[C@@H]1CC[C@]2(NCCNC3CCN(S(C)(=O)=O)C3)CC[C@]3(C)[C@H](CC[C@@H]4[C@@]5(C)CC=C(c6ccc(C(=O)O)cc6)C(C)(C)[C@@H]5CC[C@]43C)[C@@H]12 (some centres not stated)
CC50 [2]: 10.7 µM
half-life at 1 h, 0.5 µM [3]: > 120 min
half-life at 1 h, 0.5 µM [4]: > 120 min
EC50 [5]: 1.9 nM
EC50 [8]: 13.7 nM

C=C(C)[C@@H]1CC[C@]2(C(=O)NCCN3CCS(=O)(=O)CC3)CC[C@]3(C)[C@H](CC[C@@H]4[C@@]5(C)CC=C(c6ccc(C(=O)O)cc6)C(C)(C)[C@@H]5CC[C@]43C)[C@@H]12
AUC(0-t) at 24 h [9]: 2.47 µM·h
CC50 [2]: 7.9 µM
half-life at 1 h, 0.5 µM [3]: > 120 min
half-life at 1 h, 0.5 µM [4]: > 120 min
EC50 [5]: 2.4 nM
EC50 [6]: 5.5 nM
EC50 [7]: 60.5 nM

C=C(C)[C@@H]1CC[C@]2(NCCN3CCN(S(=O)(=O)CC)CC3)CC[C@]3(C)[C@H](CC[C@@H]4[C@@]5(C)CC=C(c6ccc(C(=O)O)cc6)C(C)(C)[C@@H]5CC[C@]43C)[C@@H]12
CC50 [2]: 13.4 µM
half-life at 1 h, 0.5 µM [3]: > 120 min
half-life at 1 h, 0.5 µM [4]: > 120 min
EC50 [5]: 3.7 nM
EC50 [6]: 10.2 nM
EC50 [7]: 19.6 nM

C=C(C)[C@@H]1CC[C@]2(NCCN3CC4C(C3)C4NS(C)(=O)=O)CC[C@]3(C)[C@H](CC[C@@H]4[C@@]5(C)CC=C(c6ccc(C(=O)O)cc6)C(C)(C)[C@@H]5CC[C@]43C)[C@@H]12 (some centres not stated)
CC50 [2]: 15.2 µM
half-life at 1 h, 0.5 µM [3]: > 120 min
half-life at 1 h, 0.5 µM [4]: > 120 min
EC50 [5]: 2.8 nM
EC50 [8]: 21.3 nM
EC50 [7]: 18 nM

C=C(C)[C@@H]1CC[C@]2(NCCN3C[C@@H]4C[C@H]3CN4S(C)(=O)=O)CC[C@]3(C)[C@H](CC[C@@H]4[C@@]5(C)CC=C(c6ccc(C(=O)O)cc6)C(C)(C)[C@@H]5CC[C@]43C)[C@@H]12
AUC(0-t) at 24 h [9]: 7.08 µM·h
CC50 [2]: 9.3 µM
half-life at 1 h, 0.5 µM [3]: > 120 min
half-life at 1 h, 0.5 µM [4]: > 120 min
EC50 [5]: 2.7 nM
EC50 [6]: 2.9 nM
EC50 [7]: 9.3 nM

C=C(C)[C@@H]1CC[C@]2(NC(=O)CCN3CCS(=O)(=O)CC3)CC[C@]3(C)[C@H](CC[C@@H]4[C@@]5(C)CC=C(c6ccc(C(=O)O)cc6)C(C)(C)[C@@H]5CC[C@]43C)[C@@H]12
CC50 [2]: 16.3 µM
half-life at 1 h, 0.5 µM [3]: > 120 min
half-life at 1 h, 0.5 µM [4]: > 120 min
EC50 [5]: 6.8 nM
EC50 [6]: 11.2 nM
EC50 [7]: 101 nM

C=C(C)[C@@H]1CC[C@]2(NC(=O)OCCN3CCS(=O)(=O)CC3)CC[C@]3(C)[C@H](CC[C@@H]4[C@@]5(C)CC=C(c6ccc(C(=O)O)cc6)C(C)(C)[C@@H]5CC[C@]43C)[C@@H]12
AUC(0-t) at 24 h [9]: 4.97 µM·h
CC50 [2]: 9.9 µM
half-life at 1 h, 0.5 µM [3]: > 120 min
half-life at 1 h, 0.5 µM [4]: > 120 min
EC50 [5]: 4.6 nM
EC50 [6]: 10.7 nM
EC50 [7]: 93.9 nM

C=C(C)[C@@H]1CC[C@]2(NCCN3CCC(S(C)(=O)=O)CC3)CC[C@]3(C)[C@H](CC[C@@H]4[C@@]5(C)CC=C(c6ccc(C(=O)O)cc6)C(C)(C)[C@@H]5CC[C@]43C)[C@@H]12
CC50 [2]: 13.7 µM
half-life at 1 h, 0.5 µM [3]: > 120 min
half-life at 1 h, 0.5 µM [4]: > 120 min
EC50 [5]: 1.8 nM
EC50 [8]: 6.1 nM
EC50 [6]: 2.7 nM
EC50 [7]: 12 nM

C=C(C)[C@@H]1CC[C@]2(NC(=O)C(C(C)C)N3CCS(=O)(=O)CC3)CC[C@]3(C)[C@H](CC[C@@H]4[C@@]5(C)CC=C(c6ccc(C(=O)O)cc6)C(C)(C)[C@@H]5CC[C@]43C)[C@@H]12 (some centres not stated)
CC50 [2]: 23.5 µM
half-life at 1 h, 0.5 µM [3]: > 120 min
half-life at 1 h, 0.5 µM [4]: > 120 min
EC50 [5]: 3.9 nM
EC50 [6]: 7.1 nM
EC50 [7]: 727 nM

C=C(C)[C@@H]1CC[C@]2(NCCN3CCC4(C3)CN(S(C)(=O)=O)C4)CC[C@]3(C)[C@H](CC[C@@H]4[C@@]5(C)CC=C(c6ccc(C(=O)O)cc6)C(C)(C)[C@@H]5CC[C@]43C)[C@@H]12
CC50 [2]: 11 µM
half-life at 1 h, 0.5 µM [3]: > 120 min
half-life at 1 h, 0.5 µM [4]: > 120 min
EC50 [5]: 1.7 nM
EC50 [8]: 24.5 nM
EC50 [7]: 11.4 nM

C=C(C)[C@@H]1CC[C@]2(NCCN3CCN(S(=O)(=O)C(C)C)CC3)CC[C@]3(C)[C@H](CC[C@@H]4[C@@]5(C)CC=C(c6ccc(C(=O)O)cc6)C(C)(C)[C@@H]5CC[C@]43C)[C@@H]12
CC50 [2]: 11.9 µM
half-life at 1 h, 0.5 µM [3]: > 120 min
half-life at 1 h, 0.5 µM [4]: > 120 min
EC50 [5]: 5.2 nM
EC50 [6]: 9.9 nM
EC50 [7]: 64.2 nM

C=C(C)[C@@H]1CC[C@]2(NCCN3CCCCS3(=O)=O)CC[C@]3(C)[C@H](CC[C@@H]4[C@@]5(C)CC=C(c6ccc(C(=O)O)cc6)C(C)(C)[C@@H]5CC[C@]43C)[C@@H]12
AUC(0-t) at 24 h [9]: 4.24 µM·h
CC50 [2]: 9.53 µM
half-life at 1 h, 0.5 µM [3]: > 120 min
half-life at 1 h, 0.5 µM [4]: > 120 min
EC50 [5]: 4 nM
EC50 [6]: 2.5 nM
EC50 [7]: 36.8 nM

C=C(C)[C@@H]1CC[C@]2(NCCC3CCS(=O)(=O)CC3)CC[C@]3(C)[C@H](CC[C@@H]4[C@@]5(C)CC=C(c6ccc(C(=O)O)cc6)C(C)(C)[C@@H]5CC[C@]43C)[C@@H]12
CC50 [2]: 4.55 µM
half-life at 1 h, 0.5 µM [3]: > 120 min
half-life at 1 h, 0.5 µM [4]: > 120 min
EC50 [5]: 3.7 nM
EC50 [8]: 37.5 nM

C=C(C)[C@@H]1CC[C@]2(NCCO)CC[C@]3(C)[C@H](CC[C@@H]4[C@@]5(C)CC=C(c6ccc(C(=O)O)cc6)C(C)(C)[C@@H]5CC[C@]43C)[C@@H]12
AUC(0-t) at 6 h [1]: 4.98 µM·h
CC50 [2]: 8.48 µM
half-life at 1 h, 0.5 µM [3]: > 120 min
half-life at 1 h, 0.5 µM [4]: > 120 min
EC50 [6]: 9.9 nM
EC50 [7]: 66 nM
